ChEMBL document CHEMBL1201862, “PubChem BioAssay data set” (2004)
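Test compounds were applied to cells in 96-well plates for 48 hours at 5 doses. At the GI50, growth is halved.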 Calls of active or inactive are those of the source. Cut-off read from the data, not from the text of the source: active = GI50 up to about 1.1 µM and inactive = higher.

How the values were obtained:
Test in all cases: NCI anticancer screen, dose series, 48 h
A498 = test system: A498
CAKI-1 = test system: CAKI-1
CCRF-CEM = test system: CCRF-CEM
HCT-15 = test system: HCT-15
HL-60 = test system: HL-60
HT-29 = test system: HT-29
NCI-H460 = test system: NCI-H460
NCI/ADR-RES = test system: NCI/ADR-RES
OVCAR-3 = test system: OVCAR-3
RXF 393 = test system: RXF 393
SF-268 = test system: SF-268
SN12C = test system: SN12C
SNB-75 = test system: SNB-75
U-251 = test system: U-251
UACC-257 = test system: UACC-257
UACC-62 = test system: UACC-62
786-0 = test system: 786-0

| SMILES | GI50 (A498) | GI50 (CAKI-1) | GI50 (CCRF-CEM) | GI50 (HCT-15) [µM] | GI50 (HL-60) | GI50 (HT-29) | GI50 (NCI-H460) | GI50 (NCI/ADR-RES) | GI50 (OVCAR-3) | GI50 (RXF 393) | GI50 (SF-268) | GI50 (SN12C) | GI50 (SNB-75) | GI50 (U-251) | GI50 (UACC-257) | GI50 (UACC-62) | GI50 (786-0) |
| --- | --- | --- | --- | --- | --- | --- | --- | --- | --- | --- | --- | --- | --- | --- | --- | --- | --- |
| Cn1c2ccccc2c(=O)c2c(O)cc3c(c21)C=CC(C)(C)O3 [NORACRONYCINE] | > 13.5 µM (inactive) | 3.05 µM (inactive) | > 25 µM (inactive) | > 25 | > 11.1 µM (inactive) | > 25 µM (inactive) | > 25 µM (inactive) | > 25 µM (inactive) | > 25 µM (inactive) | > 10.2 µM (inactive) | > 25 µM (inactive) | > 25 µM (inactive) | > 16.8 µM (inactive) | > 25 µM (inactive) | > 25 µM (inactive) | > 25 µM (inactive) | – |
| CC(C)CCC1CC2C(=O)N(c3ccccc3)C(=O)C2c2[nH]c3ccccc3c21 (configuration not stated) | 1.84 µM (inactive) | – | 1.33 µM (inactive) | 2.71 | 1.11 µM (active) | 3.4 µM (inactive) | 1.13 µM (inactive) | – | 0.885 µM (active) | 0.83 µM (active) | 2.05 µM (inactive) | 2.67 µM (inactive) | 2.22 µM (inactive) | 0.455 µM (active) | – | 6.21 µM (inactive) | 2.88 µM (inactive) |
| COc1ccc(-c2nnc3c4ccccc4sn23)cc1 | – | – | 7.23 µM (inactive) | 6.28 | 15.9 µM (inactive) | 26.8 µM (inactive) | 4.58 µM (inactive) | – | 17.1 µM (inactive) | 6.43 µM (inactive) | 22.5 µM (inactive) | 17.8 µM (inactive) | 10.2 µM (inactive) | 23.4 µM (inactive) | 20 µM (inactive) | 35.4 µM (inactive) | – |
| Cc1cc(Cl)ccc1N1C(=O)C(=O)C(c2nc3ccccc3o2)C(=O)C1=O | > 100 µM (inactive) | > 100 µM (inactive) | 23.7 µM (inactive) | > 100 | 33.2 µM (inactive) | 65.8 µM (inactive) | > 100 µM (inactive) | – | 61.1 µM (inactive) | > 100 µM (inactive) | > 100 µM (inactive) | > 100 µM (inactive) | 63.4 µM (inactive) | > 100 µM (inactive) | 71 µM (inactive) | 65 µM (inactive) | > 100 µM (inactive) |
| Brc1ccc(C2CC(c3cccc4ccccc34)=Nc3ccccc3S2)cc1 (configuration not stated) | > 100 µM (inactive) | > 100 µM (inactive) | 29 µM (inactive) | 35.3 | 26.4 µM (inactive) | 46.7 µM (inactive) | > 100 µM (inactive) | – | – | > 100 µM (inactive) | > 100 µM (inactive) | > 100 µM (inactive) | > 100 µM (inactive) | 30.2 µM (inactive) | > 100 µM (inactive) | 71.9 µM (inactive) | – |
| O=C(O)/C=C/c1c[nH]cn1 | > 500 µM (inactive) | > 500 µM (inactive) | – | – | – | > 500 µM (inactive) | > 500 µM (inactive) | > 500 µM (inactive) | > 500 µM (inactive) | > 500 µM (inactive) | – | > 500 µM (inactive) | > 500 µM (inactive) | > 500 µM (inactive) | > 500 µM (inactive) | > 500 µM (inactive) | – |
| O=C1C2C(C(=O)N1OS(=O)(=O)c1ccccc1)N(Cc1ccccc1)C(=O)N2Cc1ccccc1 (configuration not stated) | > 100 µM (inactive) | > 100 µM (inactive) | > 100 µM (inactive) | > 100 | > 100 µM (inactive) | > 100 µM (inactive) | > 100 µM (inactive) | – | > 100 µM (inactive) | 70.8 µM (inactive) | > 100 µM (inactive) | > 100 µM (inactive) | 57.1 µM (inactive) | > 100 µM (inactive) | > 100 µM (inactive) | > 100 µM (inactive) | > 100 µM (inactive) |
| CCC1CN2CCC1CC2 (configuration not stated) | > 100 µM (inactive) | – | > 100 µM (inactive) | > 100 | > 100 µM (inactive) | > 100 µM (inactive) | > 100 µM (inactive) | > 100 µM (inactive) | > 100 µM (inactive) | > 100 µM (inactive) | > 100 µM (inactive) | > 100 µM (inactive) | > 100 µM (inactive) | > 100 µM (inactive) | > 91.4 µM (inactive) | > 100 µM (inactive) | – |
| COc1c(Cl)cc(S(=O)O)cc1Cl | > 100 µM (inactive) | – | > 100 µM (inactive) | – | > 100 µM (inactive) | > 100 µM (inactive) | > 100 µM (inactive) | – | > 100 µM (inactive) | > 100 µM (inactive) | > 100 µM (inactive) | > 100 µM (inactive) | > 100 µM (inactive) | > 100 µM (inactive) | > 100 µM (inactive) | > 100 µM (inactive) | – |
| CC(=O)N(CCN1C(=O)c2ccccc2C1=O)CCN1C(=O)c2ccccc2C1=O | > 100 µM (inactive) | > 100 µM (inactive) | > 100 µM (inactive) | > 100 | > 100 µM (inactive) | – | > 100 µM (inactive) | – | > 100 µM (inactive) | > 100 µM (inactive) | > 100 µM (inactive) | > 100 µM (inactive) | > 100 µM (inactive) | > 100 µM (inactive) | > 100 µM (inactive) | > 100 µM (inactive) | > 100 µM (inactive) |
| C[C@H]1[C@@H]2C[C@@H]3O[C@@]34[C@H]3CCC5Cc6nc7c(nc6C[C@@]5(C)[C@]3(O)CC(=O)[C@@]24CO[C@]12OC(C)(C)C[C@@H]2O)CC1CC[C@@H]2C3=C[C@H]4O[C@@]5(OC(C)(CO)C[C@@H]5O)[C@H](C)[C@@]4(O)[C@]3(C)[C@@H](O)CC2[C@]1(C)C7 (some centres not stated) | 0.0108 µM (active) | 0.0809 µM (active) | 0.0105 µM (active) | 0.121 | 0.00361 µM (active) | 0.014 µM (active) | 0.00955 µM (active) | > 3.52 µM (inactive) | 0.7 µM (active) | 0.00178 µM (active) | 0.0181 µM (active) | > 3.52 µM (inactive) | 0.00071 µM (active) | 0.00511 µM (active) | 0.139 µM (active) | 0.0175 µM (active) | – |
| COC(=O)[C@@H]1c2cc3c(c(O)c2[C@@H](OC)C[C@@]1(C)O)C(=O)c1c(O)cc2c(c1C3=O)OC1O[C@@]2(C)[C@H](O)[C@@H](N(C)C)[C@@H]1O | 0.257 µM (active) | 0.26 µM (active) | 0.273 µM (active) | 0.597 | 0.142 µM (active) | 0.355 µM (active) | 0.129 µM (active) | 2.06 µM (inactive) | 0.361 µM (active) | 0.381 µM (active) | 0.528 µM (active) | 0.254 µM (active) | 0.245 µM (active) | 0.307 µM (active) | 0.337 µM (active) | 0.223 µM (active) | – |
| CCCCCCCCC[C@@H]1C[C@H](O)[C@H](Cc2ccccc2)N1C(=O)OC(C)(C)C | 19.5 µM (inactive) | 21.9 µM (inactive) | 20.2 µM (inactive) | 18.6 | 22.9 µM (inactive) | 16.7 µM (inactive) | – | – | 20.3 µM (inactive) | 17.7 µM (inactive) | 18.7 µM (inactive) | 16.7 µM (inactive) | 21.9 µM (inactive) | 16.1 µM (inactive) | 15.8 µM (inactive) | 17 µM (inactive) | – |
| O=C(O)CCCCCCCCC(=O)O [SEBACIC ACID] | > 23.2 µM (inactive) | > 500 µM (inactive) | 300 µM (inactive) | 99.1 | 316 µM (inactive) | > 23.2 µM (inactive) | 108 µM (inactive) | > 79.3 µM (inactive) | 79.3 µM (inactive) | 50 µM (inactive) | > 500 µM (inactive) | > 321 µM (inactive) | > 79.3 µM (inactive) | > 79.3 µM (inactive) | 108 µM (inactive) | > 79.3 µM (inactive) | – |
| COc1cc(C(C)c2cc3c(cc2OCCO)OCO3)cc(OC)c1OC (configuration not stated) | – | 5.11 µM (inactive) | 1.82 µM (inactive) | 0.824 | 0.313 µM (active) | 0.436 µM (active) | 2.2 µM (inactive) | – | 0.538 µM (active) | 0.63 µM (active) | 3.9 µM (inactive) | 5.82 µM (inactive) | 1.2 µM (inactive) | 2.48 µM (inactive) | 7.16 µM (inactive) | 0.601 µM (active) | – |
| O=C(Nc1ccc(C2=NCCN2)cc1)c1cncc(C(=O)Nc2ccc(C3=NCCN3)cc2)c1 | > 100 µM (inactive) | > 100 µM (inactive) | > 100 µM (inactive) | > 100 | > 100 µM (inactive) | > 100 µM (inactive) | > 100 µM (inactive) | > 100 µM (inactive) | > 100 µM (inactive) | > 100 µM (inactive) | > 31.6 µM (inactive) | > 100 µM (inactive) | > 31.6 µM (inactive) | > 100 µM (inactive) | > 100 µM (inactive) | > 100 µM (inactive) | – |
| COc1ccc(-c2cc(=O)c3ccccc3o2)cc1N | 37.4 µM (inactive) | 18.7 µM (inactive) | 28.6 µM (inactive) | 46.6 | 15.6 µM (inactive) | 32.8 µM (inactive) | 36 µM (inactive) | – | 31.8 µM (inactive) | 23.6 µM (inactive) | 25.7 µM (inactive) | 84.7 µM (inactive) | 18.7 µM (inactive) | 69.3 µM (inactive) | 51.3 µM (inactive) | 25.8 µM (inactive) | > 100 µM (inactive) |
| O=C(O)c1ccc([N+](=O)[O-])c2c(=O)c3ccccc3[nH]c12 | > 100 µM (inactive) | > 100 µM (inactive) | > 100 µM (inactive) | > 100 | > 100 µM (inactive) | > 100 µM (inactive) | > 100 µM (inactive) | – | – | > 100 µM (inactive) | > 100 µM (inactive) | > 100 µM (inactive) | 99.5 µM (inactive) | > 100 µM (inactive) | > 100 µM (inactive) | > 100 µM (inactive) | > 100 µM (inactive) |
